Test results from ChEMBL document CHEMBL5726312, “TYK2 inhibitors and uses thereof” (2019).

molecular target: Non-receptor tyrosine-protein kinase TYK2 (Homo sapiens, UniProt P29597); experiment: Tyk2 & JAK2 Caliper Assay: The caliper machine employs an off chip mobility shift assay to detect phosphorylated peptide substrates from kinase assays, using microfluidics technology. The assays are carried out at ATP concentration equivalent to the ATP Km, and at 1 mM ATP. Compounds are serially diluted in DMSO then further diluted in assay buffer (25 mM HEPES, pH 7.5, 0.01% Brij-35, 0.01% Triton, 0.5 mM EGTA). 5 ul of diluted compound was added into wells first, then 10 ul of enzyme mix was added into wells, followed by 10 uL of substrate mix (peptide and ATP in 10 mM MgCl2) to start reaction. Reaction was incubated at 28° C. for 25 min and then added 25 ul stop buffer (100 mM HEPES, 0.015% Brij-35, 50 mM EDTA), followed by reading with Caliper. JAK2 at 1 nM final concentration and TYK2 at 9.75 nM are from Carna, and substrates used are ATP at 20 and 16 uM, respectively. JAK2 assay uses peptide 22 and TYK2 uses peptide 30 (Caliper), each at 3 uM.
Sequence (P29597 whole entry): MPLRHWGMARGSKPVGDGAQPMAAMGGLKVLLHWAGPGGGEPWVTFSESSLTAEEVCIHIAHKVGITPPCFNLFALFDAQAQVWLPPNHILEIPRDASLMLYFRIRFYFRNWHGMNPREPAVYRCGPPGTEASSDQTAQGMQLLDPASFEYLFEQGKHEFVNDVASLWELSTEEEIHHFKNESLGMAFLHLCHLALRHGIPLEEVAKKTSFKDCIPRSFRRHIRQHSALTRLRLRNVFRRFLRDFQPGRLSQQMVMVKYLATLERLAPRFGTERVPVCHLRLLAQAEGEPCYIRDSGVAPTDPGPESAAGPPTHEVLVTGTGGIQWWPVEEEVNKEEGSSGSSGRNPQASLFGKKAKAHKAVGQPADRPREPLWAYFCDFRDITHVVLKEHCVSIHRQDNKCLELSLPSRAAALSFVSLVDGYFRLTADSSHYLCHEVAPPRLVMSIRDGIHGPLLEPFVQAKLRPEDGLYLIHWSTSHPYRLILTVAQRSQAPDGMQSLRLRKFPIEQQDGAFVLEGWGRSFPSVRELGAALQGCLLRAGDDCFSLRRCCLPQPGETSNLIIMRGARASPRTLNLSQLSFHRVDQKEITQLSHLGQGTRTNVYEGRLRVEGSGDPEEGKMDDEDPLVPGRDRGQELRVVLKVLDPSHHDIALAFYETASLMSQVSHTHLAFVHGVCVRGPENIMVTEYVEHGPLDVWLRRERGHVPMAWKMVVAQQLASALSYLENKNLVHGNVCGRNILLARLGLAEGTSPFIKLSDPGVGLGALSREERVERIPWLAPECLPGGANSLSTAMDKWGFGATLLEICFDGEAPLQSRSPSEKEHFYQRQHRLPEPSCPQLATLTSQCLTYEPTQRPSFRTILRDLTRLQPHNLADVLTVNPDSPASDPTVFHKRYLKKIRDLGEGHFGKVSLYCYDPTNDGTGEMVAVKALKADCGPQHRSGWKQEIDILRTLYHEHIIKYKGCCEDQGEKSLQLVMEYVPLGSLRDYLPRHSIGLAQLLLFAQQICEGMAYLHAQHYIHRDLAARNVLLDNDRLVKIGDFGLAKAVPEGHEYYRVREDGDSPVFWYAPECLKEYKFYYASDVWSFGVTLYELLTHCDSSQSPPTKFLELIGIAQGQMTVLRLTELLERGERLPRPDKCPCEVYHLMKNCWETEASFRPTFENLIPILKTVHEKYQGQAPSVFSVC

Row | Compound | Ki [nM]
1 | O=C1NCc2nc(-c3c(F)cccc3F)cc(Nc3ccc(C(=O)N4CCOCC4)cn3)c21 | < 10
2 | CCNC(=O)c1ccc(Nc2cc(-c3c(F)cccc3C#N)nc3c2C(=O)NC3)nc1 | < 10
3 | O=C1NCc2nc(-c3c(F)cccc3F)cc(Nc3ccc(N4CCOCC4=O)cn3)c21 | < 10
4 | CCNC(=O)c1ccc(Nc2cc(-c3c(F)cccc3Cl)nc3c2C(=O)NC3)nc1 | < 10
5 | CC1(c2ccc(Nc3nc(-c4c(F)cccc4F)nc4c3C(=O)NC4)cc2)COC1 | < 10
6 | CC1CC(O)CC(C)N1c1ccc(Nc2cc(-c3c(F)cccc3F)nc3c2C(=O)NC3)nc1 (stereo not drawn) | < 10
7 | CC1(C)CCCC(=O)N1c1ccc(Nc2cc(-c3c(F)cccc3F)nc3c2C(=O)NC3)nc1 | < 10
8 | O=C1NCc2nc(-c3c(F)cccc3F)cc(Nc3ccc(N4CC(F)(F)C4)cn3)c21 | < 10
9 | O=C1NCc2nc(-c3c(F)cccc3F)cc(Nc3ccc(F)cn3)c21 | < 10
10 | O=C1NCc2nc(-c3c(F)cccc3F)cc(Nc3ccc(N4CCCC(O)C4)cn3)c21 (stereo not drawn) | < 10
11 | O=C1NCc2nc(-c3c(F)cccc3F)cc(Nc3ccc(C4(O)CCOCC4)cn3)c21 | < 10
12 | CC1(C)CCC(=O)N1c1ccc(Nc2cc(-c3c(F)cccc3F)nc3c2C(=O)NC3)nc1 | < 10
13 | CC[C@@]1(c2ccc(Nc3nc(-c4c(F)cccc4F)nc4c3C(=O)NC4)cc2)CCNC1=O | < 10
14 | O=C1NCc2nc(-c3c(F)cccc3F)cc(Nc3ccc(C4=CCOCC4)cn3)c21 | < 10
15 | O=C1NCc2nc(-c3c(F)cccc3F)c(F)c(Nc3ccc(N4CCOCC4)cn3)c21 | < 10
16 | O=C1NCc2nc(-c3c(F)cccc3F)cc(Nc3ccc(N4CCN(CC(F)F)CC4)cn3)c21 | < 10
17 | CC[C@]1(c2ccc(Nc3nc(-c4c(F)cccc4F)nc4c3C(=O)NC4)cc2)CCNC1=O | < 10
18 | O=C1NCc2nc(-c3c(F)cccc3F)cc(Nc3ccc(N4CCC[C@H](O)C4)cn3)c21 | < 10
19 | CC1COCCN1c1ccc(Nc2cc(-c3c(F)cccc3F)nc3c2C(=O)NC3)nc1 (stereo not drawn) | < 10
20 | O=C1NCc2nc(-c3c(F)cccc3F)cc(Nc3ccc(N4CCC5(CC5)C4)cn3)c21 | < 10

Row | Compound | Ki [nM]
21 | COCCNC(=O)c1ccc(Nc2cc(-c3c(F)cccc3F)nc3c2C(=O)NC3)nc1 | < 10
22 | CCNC(=O)c1ccc(Nc2cc(-c3c(F)cccc3F)nc3c2C(=O)NC3)cn1 | < 10
23 | CN(c1ccc(Nc2cc(-c3c(F)cccc3F)nc3c2C(=O)NC3)nc1)C(C)(C)C | < 10
24 | CC1(O)CCN(C(=O)c2ccc(Nc3cc(-c4c(F)cccc4F)nc4c3C(=O)NC4)cc2)CC1 | < 10
25 | CC(C)Oc1ccc(Nc2nc(-c3c(F)cccc3F)nc3c2C(=O)NC3)cc1 | < 10
26 | C[C@@H]1CCC[C@H](C)N1c1ccc(Nc2cc(-c3c(F)cccc3F)nc3c2C(=O)NC3)nc1 | < 10
27 | CC1(C)OCCN(c2ccc(Nc3cc(-c4c(F)cccc4F)nc4c3C(=O)NC4)nc2)C1=O | < 10
28 | CCNC(=O)c1cnc(Nc2cc(-c3c(F)cccc3F)nc3c2C(=O)NC3)cc1F | < 10
29 | CC1(C)CN(c2ccc(Nc3cc(-c4c(F)cccc4F)nc4c3C(=O)NC4)nc2)CC[C@@H]1O | < 10
30 | CCN(CC)C(=O)c1ccc(Nc2cc(-c3c(F)cccc3F)nc3c2C(=O)NC3)cc1 | < 10
31 | CCNC(=O)Cc1ncc(Nc2nc(-c3c(F)cccc3F)nc3c2C(=O)NC3)cn1 | > 1000
32 | O=C1NCc2nc(-c3c(F)cccc3F)cc(Nc3ccc(NS(=O)(=O)C(F)F)cn3)c21 | < 10
33 | CCNC(=O)c1ccc(Nc2nc(-c3c(F)cccc3F)nc3c2C(=O)NC3)cc1 | < 10
34 | O=C1NCc2nc(-c3c(F)cccc3F)cc(Nc3ccc(N4CCOCC4)nc3)c21 | < 10
35 | CC1(C)CCN(c2ccc(Nc3cc(-c4c(F)cccc4F)nc4c3C(=O)NC4)nc2)CC1 | < 10
36 | CC(C)(C)Nc1ccc(Nc2cc(-c3c(F)cccc3F)nc3c2C(=O)NC3)nc1 | < 10
37 | COc1ccc(Nc2cc(-c3c(F)cccc3F)nc3c2C(=O)N[C@@H]3C)nc1 | < 10
38 | C[C@@H]1CCC[C@@H](C)N1c1ccc(Nc2cc(-c3c(F)cccc3F)nc3c2C(=O)NC3)nc1 | < 10
39 | O=C1NCc2nc(-c3c(F)cccc3F)cc(Nc3ccc(F)cc3)c21 | < 10
40 | O=C(Cc1ccc(Nc2nc(-c3c(F)cccc3F)nc3c2C(=O)NC3)cc1)NC1CNC1 | < 10

Row | Compound | Ki [nM]
41 | O=C1NCc2nc(-c3c(F)cccc3F)cc(Nc3ccc(N4CCN(CCC(F)(F)F)CC4)cn3)c21 | < 10
42 | COc1ccc(Nc2cc(-c3c(F)cccc3C#N)nc3c2C(=O)NC3)nc1 | < 10
43 | CC(C)N1CCN(c2ccc(Nc3cc(-c4c(F)cccc4F)nc4c3C(=O)NC4)nc2)CC1 | < 10
44 | CC(C)N1CCN(C(=O)c2ccc(Nc3cc(-c4c(F)cccc4F)nc4c3C(=O)NC4)cc2)CC1 | < 10
45 | COC(=O)C(C)c1ccc(Nc2nc(-c3c(F)cccc3F)nc3c2C(=O)NC3)cc1 (stereo not drawn) | < 10
46 | CC1(O)CN(c2ccc(Nc3cc(-c4c(F)cccc4F)nc4c3C(=O)NC4)nc2)C1 | < 10
47 | Cc1ccc(Nc2nc(-c3c(F)cccc3F)nc3c2C(=O)NC3)cc1 | < 10
48 | C[C@@H]1COCCN1c1ccc(Nc2cc(-c3c(F)cccc3F)nc3c2C(=O)NC3)nc1 | < 10
49 | C[C@H]1COC[C@H](C)N1c1ccc(Nc2cc(-c3c(F)cccc3F)nc3c2C(=O)NC3)nc1 | < 10
50 | N#Cc1cccc(F)c1-c1cc(Nc2ccc(C(=O)N3CCOCC3)cc2)c2c(n1)CNC2=O | < 10
51 | CC(C)N1CCN(c2ccc(Nc3cc(-c4c(F)cccc4F)nc4c3C(=O)NC4)nc2)C(=O)C1 | < 10
52 | O=C1NCc2nc(-c3c(F)cccc3F)cc(Nc3ccc(C(=O)N4CCC(F)(F)CC4)cc3)c21 | < 10
53 | CN1CCN(C)[C@](C)(c2ccc(Nc3nc(-c4c(F)cccc4F)nc4c3C(=O)NC4)cc2)C1=O | < 10
54 | C[C@@H]1COC[C@@H](C)N1C(=O)c1ccc(Nc2cc(-c3c(F)cccc3F)nc3c2C(=O)NC3)cc1 | < 10
55 | O=C1NCc2nc(-c3c(F)cccc3F)cc(Nc3ccc(N4C5COCC4C5)cn3)c21 | < 10
56 | O=C1NCc2nc(-c3c(F)cccc3F)cc(Nc3ccc(C(=O)N4CCCCC4)cc3)c21 | < 10
57 | O=C1NCc2nc(-c3c(F)cccc3F)cc(Nc3ccc(N4CCCOCC4)cn3)c21 | < 10
58 | O=C1NCc2nc(-c3c(F)cccc3F)cc(Nc3ccc(N4CCCC4)cn3)c21 | < 10
